Assay: Saturated solubility of the drug in the pressure-sensitive adhesive

CN1C(=O)CN=C(c2ccccc2F)c2cc([N+](=O)[O-])ccc21 [Flunitrazepam]
Saturated Solubility (in adhesive of Comparative Example 3 (nonylacrylate 75, ethoxyethylacrylate 15, vinyl acetate 10)): 3.5% | Saturated Solubility (in adhesive of Comparative Example 4 (nonylacrylate 60, ethoxyethylacrylate 20, vinyl acetate 20)): 4% | Saturated Solubility (in adhesive of Example 3 (nonylacrylate 75, ethoxyethylacrylate 15, vinyl acetate 10)): 3.5%

CC(C)NCC(O)COc1cccc2[nH]ccc12 (stereo not drawn) [Pindolol]
Saturated Solubility (in adhesive of Comparative Example 5 (2-ethylhexylacrylate 85, N-vinyl-2-pyrrolidone 15)): 7% | Saturated Solubility (in adhesive of Comparative Example 6 (2-ethylhexylacrylate 75, N-vinyl-2-pyrrolidone 25)): 6% | Saturated Solubility (in adhesive of Example 4 (2-ethylhexylacrylate 85, N-vinyl-2-pyrrolidone 15)): 7%

— patent publication US5154929A, “Percutaneous absorption type preparation and process for preparing the same” (Nitto Denko Corporation, priority 1988, dated 1992)
